Results taken from the Deep4Chem optical property database.

Assay: photoluminescence quantum yield (fraction); solvent given as SMILES
[1] = in O=P(c1ccccc1)(c1ccccc1)c1ccccc1Oc1ccccc1P(=O)(c1ccccc1)c1ccccc1

COc1ccc2c(c1)SCC1=C(c3ccccc3)C3=Nc4c(-c5ccccc5)c5c(n4[B-](F)(F)[N+]3=C12)-c1ccc(OC)cc1SC5
photoluminescence quantum yield (in ClC(Cl)Cl): 0.11

CCOC(=O)c1cc(C)n2nc(-c3ccccc3)ccc12
photoluminescence quantum yield (in CCCCCC): 0.434

Cc1ccc2nc3[nH]c(=O)[nH]c(=O)c3nc2c1C
photoluminescence quantum yield (in CC#N): 0.041

Cc1ccc2ccccc2c1
photoluminescence quantum yield (in C1CCCCC1): 0.52

COc1ccc(-n2nc(C#N)c(N3CCOCC3)n2)cc1
photoluminescence quantum yield (in CC#N): 0.856

O=C(c1ccc(N(c2ccccc2)c2ccccc2)cc1)[C@H]1[C@H](c2cccs2)C[C@](O)(c2ccccn2)C[C@]1(O)c1ccccn1
photoluminescence quantum yield (in C1CCOC1): 0.24
photoluminescence quantum yield (in CC#N): 0.01
photoluminescence quantum yield (in CCO): 0.01
photoluminescence quantum yield (in CCOC(C)=O): 0.35
photoluminescence quantum yield (in CN(C)C=O): 0.02
photoluminescence quantum yield (in ClCCl): 0.22
photoluminescence quantum yield (in c1ccccc1): 0.9

CC(C)[Si](C#Cc1c2cc3ccccc3cc2c(C#C[Si](C(C)C)(C(C)C)C(C)C)c2nc3c(ccc4cc5ccccc5cc43)nc12)(C(C)C)C(C)C
photoluminescence quantum yield (in CCCCCC): 0.26

Oc1cccc(O)c1-c1c2ccc(=[N+]3CCCCC3)cc-2oc2cc(N3CCCCC3)ccc12
photoluminescence quantum yield (in CCO): 0.26

CC(C)Nc1cc2c(cc1F)c(=O)c1cc(F)c(NC(C)C)cc1n2C
photoluminescence quantum yield (in CCO): 0.31

CC(=O)[B-]1(C(C)=O)OC(C)=CC(c2ccc3ccccc3c2)=[O+]1
photoluminescence quantum yield (in CC#N): 0.13
photoluminescence quantum yield (in ClC(Cl)(Cl)Cl): 0.16

C(=C\c1ccc(N(c2ccc(/C=C/c3ccc(-c4cc(-c5ccccc5)nc(-c5ccccc5)c4)cc3)cc2)c2ccc(/C=C/c3ccc(-c4cc(-c5ccccc5)nc(-c5ccccc5)c4)cc3)cc2)cc1)/c1ccc(-c2cc(-c3ccccc3)nc(-c3ccccc3)c2)cc1
photoluminescence quantum yield (in C1CCOC1): 0.08
photoluminescence quantum yield (in Cc1ccccc1): 0.14

C=CC(=O)Oc1ccc2cc(C=C)c(=O)oc2c1
photoluminescence quantum yield (in CC#N): 0.19

COc1cc(OC)cc(C2=C3C(C)=C(I)C(/C=C/c4ccsc4)=[N+]3[B-](F)(F)n3c(/C=C/c4ccsc4)c(I)c(C)c32)c1
photoluminescence quantum yield (in C1CCOC1): 0.01
photoluminescence quantum yield (in CS(C)=O): 0.01
photoluminescence quantum yield (in ClCCl): 0.02

c1ccc(-c2c3ccccc3nc3cc4ccccc4cc23)cc1
photoluminescence quantum yield (in ClCCl): 0.4

CN(C)c1ccc2c(-c3cc(N)ccc3C(=O)[O-])c3ccc(=[N+](C)C)cc-3oc2c1
photoluminescence quantum yield (in CCO): 0.016
photoluminescence quantum yield (in O): 0.022

Brc1ccc(-c2nc(-c3ccc(-c4nc(-c5ccc(Br)cc5)c(-c5ccc(Br)cc5)[nH]4)cc3)[nH]c2-c2ccc(Br)cc2)cc1
photoluminescence quantum yield (in CS(C)=O): 0.49

CC[N+](CC)=c1ccc2c(C(F)(F)F)c3oc4cc(N)ccc4c3oc-2c1
photoluminescence quantum yield (in CCO): 0.064
photoluminescence quantum yield (in ClCCl): 0.157
photoluminescence quantum yield (in O): 0.014

COC(=O)c1nc2c(OCc3ccccc3)nc(N)nc2n1Cc1ccccc1
photoluminescence quantum yield (in C1COCCO1): 0.95
photoluminescence quantum yield (in CC#N): 0.87
photoluminescence quantum yield (in CO): 0.92
photoluminescence quantum yield (in ClCCl): 0.95

CC(C)n1c(=O)c2cc3ccc4cccc5ccc(c2c1=O)c3c45
photoluminescence quantum yield (in ClC(Cl)Cl): 0.49

CC[N+]1(CC)CN2C(C)=CC(C)=C(C(=O)[O-])C2=N1
photoluminescence quantum yield (in CN(C)C=O): 0.105
photoluminescence quantum yield (in O): 0.783

Fc1c(-n2c3ccccc3c3ccccc32)c(-c2nnc(-c3ccccc3)o2)c(-n2c3ccccc3c3ccccc32)c(-n2c3ccccc3c3ccccc32)c1-n1c2ccccc2c2ccccc21
photoluminescence quantum yield (in Cc1ccccc1): 0.1

CC(=O)[B-]1(C(C)=O)OC(c2ccccc2)=CC(c2ccccc2)=[O+]1
photoluminescence quantum yield (in CC#N): 0.8
photoluminescence quantum yield (in ClC(Cl)(Cl)Cl): 0.9

Cn1c(=O)cc(C(=O)c2ccccc2)c2sc(-c3ccc(C(F)(F)F)cc3)cc21
photoluminescence quantum yield (in CC#N): 0.8
photoluminescence quantum yield (in ClCCl): 0.82

CCCCCCC1(CCCCCC)c2cc(-c3nc(-c4ccc5c(c4)C(CCCCCC)(CCCCCC)c4cc(N6c7ccccc7Oc7ccccc76)ccc4-5)nc(-c4ccc5c(c4)C(CCCCCC)(CCCCCC)c4cc(N6c7ccccc7Oc7ccccc76)ccc4-5)n3)ccc2-c2ccc(N3c4ccccc4Oc4ccccc43)cc21
photoluminescence quantum yield (in C1CCOC1): 0.02
photoluminescence quantum yield (in CCCCCC): 0.52
photoluminescence quantum yield (in Cc1ccccc1): 0.45
photoluminescence quantum yield (in ClCCl): 0.01

c1csc(-c2ccc3c4ccc(-c5cccs5)cc4n(-c4cccs4)c3c2)c1
photoluminescence quantum yield (in ClCCl): 0.21

c1ccc2c(c1)-c1ccccc1C21c2ccccc2N(c2ccc(-c3nc([C@]45CC6CC(C[C@@H](C6)C4)C5)nc([C@]45C[C@H]6C[C@@H](C[C@H](C6)C4)C5)n3)cc2)c2ccccc21
photoluminescence quantum yield (in CC1(C)c2ccccc2N(c2cccc(N3c4ccccc4C(C)(C)c4ccccc43)c2)c2ccccc21): 0.67
photoluminescence quantum yield (in CC(C)(C)c1ccc(-n2c3ccc([Si](c4ccccc4)(c4ccccc4)c4ccccc4)cc3c3cc([Si](c4ccccc4)(c4ccccc4)c4ccccc4)ccc32)cc1): 0.76
photoluminescence quantum yield (in Cc1cc(-n2c3ccccc3c3ccccc32)ccc1-c1ccc(-n2c3ccccc3c3ccccc32)cc1C): 0.36
photoluminescence quantum yield (in O=P(c1ccccc1)(c1ccccc1)c1ccc([Si](c2ccccc2)(c2ccccc2)c2ccccc2)cc1): 0.84

c1ccc2cc3c(cc2c1)-c1cccc2c1c-3cc1ccccc12
photoluminescence quantum yield (in CCCCCCC): 0.73

c1ccc2c3c(ccc2c1)-c1cc2ccccc2c2cccc-3c12
photoluminescence quantum yield (in CCCCCCC): 0.1

CCOC(=O)/C(C#N)=C/c1cc2c3ccccc3n(C)c2cc1OC
photoluminescence quantum yield (in C1CCOC1): 0.001
photoluminescence quantum yield (in CC#N): 0.003
photoluminescence quantum yield (in CCOC(C)=O): 0.004
photoluminescence quantum yield (in CN(C)C=O): 0.005
photoluminescence quantum yield (in CO): 0.003
photoluminescence quantum yield (in CS(C)=O): 0.01
photoluminescence quantum yield (in Cc1ccccc1): 0.003
photoluminescence quantum yield (in ClC(Cl)Cl): 0.004
photoluminescence quantum yield (in ClCCl): 0.003

c1ccc(N(c2ccccc2)c2ccc(-c3ccc4c(c3)C3(c5cc(-c6ccc(N(c7ccccc7)c7ccccc7)cc6)ccc5O4)c4ccccc4-c4ccccc43)cc2)cc1
photoluminescence quantum yield (in ClCCl): 0.47
photoluminescence quantum yield (in c1cc(-n2c3ccccc3c3ccccc32)cc(-n2c3ccccc3c3ccccc32)c1): 0.45

CN(C)c1ccc(C2=CC3=C(c4ccc([N+](=O)[O-])cc4)[C@H]4c5ccccc5[C@]3(S2)c2ccccc24)cc1
photoluminescence quantum yield (in ClCCl): 0.003

CCCCCCCCCCCCN1C(=O)c2cccc3c(N(Cc4ccccn4)Cc4ccccn4)c4ccccc4c(c23)C1=O
photoluminescence quantum yield (in C1CCOC1): 0.07
photoluminescence quantum yield (in CCCCCC): 0.06
photoluminescence quantum yield (in CCO): 0.1
photoluminescence quantum yield (in Cc1ccccc1): 0.06
photoluminescence quantum yield (in ClCCl): 0.12

FC(F)(F)c1ccc(-c2nnc(-c3cc(-c4nnc(-c5ccc(C(F)(F)F)cc5)o4)c(-n4c5ccccc5c5ccccc54)cc3-n3c4ccccc4c4ccccc43)o2)cc1
photoluminescence quantum yield (in Cc1ccccc1): 0.095
photoluminescence quantum yield [1]: 0.698

N#Cc1cc(N2c3ccccc3Oc3ccccc32)c(N2c3ccccc3Oc3ccccc32)cc1C#N
photoluminescence quantum yield (in c1ccc2c(c1)c1ccccc1n2-c1ccc(-c2ccc(-n3c4ccccc4c4ccccc43)cc2)cc1): 0.064

COC(=O)C(NC(=O)OC(C)(C)C)c1ccc2oc(-c3ccc(OC(=O)c4ccccc4)cc3O)nc2c1 (stereo not drawn)
photoluminescence quantum yield (in CC1CCCCC1): 0.03
photoluminescence quantum yield (in CC#N): 0.01
photoluminescence quantum yield (in CO): 0.003

Cn1nc(-c2ccc(C#N)cc2)cc1-c1ccccc1
photoluminescence quantum yield (in ClCCl): 0.7

CC1(C)CC(/C=C/c2ccc(-n3cccn3)cc2)=CC(=C(C#N)C#N)C1
photoluminescence quantum yield (in CCO): 0.0001

O=C1c2ccccc2C2=Nc3ccc4ccccc4[n+]3[B-](F)(F)N12
photoluminescence quantum yield (in ClCCl): 0.74

CC(C)c1cccc(C(C)C)c1-n1c(=O)c2ccc3c4ccc5c(=O)n(-c6c(C(C)C)cccc6C(C)C)c(=O)c6cc7c(-c8ccccc8)nc8cc(c1=O)c2c3c8c7c4c56
photoluminescence quantum yield (in ClC(Cl)Cl): 0.74

O=C1OC(c2ccccc2)=C/C1=C\c1ccc([N+](=O)[O-])cc1
photoluminescence quantum yield (in C1COCCO1): 0.083

C(=C\c1nc2ccccc2[nH]1)/c1ccc(-c2nc3c4cccnc4c4ncccc4c3[nH]2)cc1
photoluminescence quantum yield (in C1CCOC1): 0.11
photoluminescence quantum yield (in CC#N): 0.15
photoluminescence quantum yield (in CO): 0.09
photoluminescence quantum yield (in ClCCl): 0.07

CC1(C)c2ccccc2-c2cc3c4cc(-n5c6ccccc6c6ccccc65)ccc4n(-c4ccc(-c5nc(-c6ccccc6)nc(-c6ccccc6)n5)cc4)c3cc21
photoluminescence quantum yield [1]: 0.84

COc1ccc(-c2csc(/C(C#N)=C\Nc3ccc(C#N)cc3)n2)cc1
photoluminescence quantum yield (in CC#N): 0.001
photoluminescence quantum yield (in CCO): 0.001
photoluminescence quantum yield (in CN(C)C=O): 0.003
photoluminescence quantum yield (in Cc1ccccc1): 0.003
photoluminescence quantum yield (in ClCCl): 0.001

CC(C)(C)c1ccc2c(c1)c1cc(C(C)(C)C)ccc1n2-c1ccc(N(c2ccc(-c3ccc(N(c4ccc(-n5c6ccc(C(C)(C)C)cc6c6cc(C(C)(C)C)ccc65)cc4)c4ccc(-n5c6ccc(C(C)(C)C)cc6c6cc(C(C)(C)C)ccc65)cc4)cc3)cc2)c2ccc(-n3c4ccc(C(C)(C)C)cc4c4cc(C(C)(C)C)ccc43)cc2)cc1
photoluminescence quantum yield (in ClCCl): 0.55

CCC1=C(C)C2=Cc3cc4c(cc3B(O)N2C1=O)OCO4
photoluminescence quantum yield (in CC#N): 0.57
photoluminescence quantum yield (in CO): 0.3
photoluminescence quantum yield (in CS(C)=O): 0.8
photoluminescence quantum yield (in ClC(Cl)Cl): 0.61

COc1ccc(C#Cc2ccc(C#Cc3ccc(C#Cc4ccccc4C#N)cc3C#N)cc2C#N)cc1
photoluminescence quantum yield (in C1CCOC1): 0.972
photoluminescence quantum yield (in CC#N): 0.973
photoluminescence quantum yield (in CN(C)C=O): 0.949
photoluminescence quantum yield (in ClC(Cl)Cl): 0.982
photoluminescence quantum yield (in c1ccccc1): 0.972

CCCCc1ccc(C#Cc2ccc3nc4ccc(C#Cc5ccc(CCCC)cc5)cn4c(=O)c3c2)cc1
photoluminescence quantum yield (in ClCCl): 0.48

COc1ccc(C2=C(c3ccc(OC)cc3)C(C)(C)c3cc(OC)ccc32)cc1
photoluminescence quantum yield (in C1CCCCC1): 0.12

Cc1cc(C)c(B2c3cc(C)ccc3N3c4ccc(C)cc4B(c4c(C)cc(C)cc4C)c4cc(C)cc2c43)c(C)c1
photoluminescence quantum yield (in Cc1ccccc1-c1cccc(Oc2cc3c4c(c2)Oc2cc(-c5ccccc5C)ccc2B4c2ccc(-c4ccccc4C)cc2O3)c1): 0.889
photoluminescence quantum yield (in ClCCl): 0.79

COC(=O)c1cc(=O)n(C)c2cc(-c3ccc(N4CCN(C)CC4)cc3)sc12
photoluminescence quantum yield (in CC#N): 0.03
photoluminescence quantum yield (in ClCCl): 0.99

O=c1ccc2cc3c(cc2o1)OCC3
photoluminescence quantum yield (in CC(C)O): 0.23
photoluminescence quantum yield (in CCO): 0.23
photoluminescence quantum yield (in CCOCC): 0.06
photoluminescence quantum yield (in CO): 0.3
photoluminescence quantum yield (in O): 0.83

COc1ccc(-c2oc3cccc4c5c(-c6ccc(OC)c(OC)c6)c(=N)oc6cccc(c2c34)c65)cc1OC
photoluminescence quantum yield (in ClC(Cl)Cl): 0.41
